Measured values as given in the CheMixHub viscosity set.

Test: xn = mol fraction of the nth substance listed

CCCC(=O)O + C1CCOC1
298.15 K, 101 kPa
Conditions | viscosity [mPa·s]
x2 = 0.1195 | 1.45
x2 = 0.234 | 1.43
x2 = 0.3437 | 1.34
x2 = 0.4489 | 1.212
x2 = 0.5499 | 1.068
x2 = 0.647 | 0.9205
x2 = 0.7403 | 0.7856
x2 = 0.8301 | 0.6588
x2 = 0.9166 | 0.545

CCOC(=O)C(=O)OCC + C1CCOC1
viscosity [mPa·s], 101 kPa
Conditions | x1 = 0.0955 | x1 = 0.2037 | x1 = 0.3007 | x1 = 0.4056 | x1 = 0.513 | x1 = 0.6056 | x1 = 0.7083 | x1 = 0.7994 | x1 = 0.9082
303.15 K | 0.506 | 0.591 | 0.683 | 0.795 | 0.916 | 1.03 | 1.173 | 1.298 | 1.472
313.15 K | 0.453 | 0.529 | 0.607 | 0.698 | 0.801 | 0.893 | 1.006 | 1.107 | 1.237
323.15 K | 0.414 | 0.479 | 0.544 | 0.619 | 0.701 | 0.782 | 0.872 | 0.954 | 1.057

C1CC[C@H]2CCCC[C@H]2C1 + C1CC[C@H]2CCCC[C@@H]2C1
Conditions | viscosity [mPa·s]
293.15 K, 101 kPa, x1 = 0.103 | 2.193
293.15 K, 101 kPa, x1 = 0.129 | 2.206
293.15 K, 101 kPa, x1 = 0.206 | 2.289
293.15 K, 101 kPa, x1 = 0.256 | 2.321
293.15 K, 101 kPa, x1 = 0.383 | 2.391
293.15 K, 101 kPa, x1 = 0.509 | 2.622
293.15 K, 101 kPa, x1 = 0.608 | 2.748
293.15 K, 101 kPa, x1 = 0.633 | 2.763
293.15 K, 101 kPa, x1 = 0.756 | 2.943
293.15 K, 101 kPa, x1 = 0.805 | 3.026
293.15 K, 101 kPa, x1 = 0.903 | 3.178
293.15 K, 101.3 kPa, x1 = 0.403 | 2.445
298.15 K, 100 kPa, x1 = 0.39 | 2.22
303.15 K, 101 kPa, x1 = 0.103 | 1.68
303.15 K, 101 kPa, x1 = 0.129 | 1.704
303.15 K, 101 kPa, x1 = 0.206 | 1.748
303.15 K, 101 kPa, x1 = 0.256 | 1.792
303.15 K, 101 kPa, x1 = 0.383 | 1.896
303.15 K, 101 kPa, x1 = 0.509 | 1.977
303.15 K, 101 kPa, x1 = 0.608 | 2.062
303.15 K, 101 kPa, x1 = 0.633 | 2.094
303.15 K, 101 kPa, x1 = 0.756 | 2.151
303.15 K, 101 kPa, x1 = 0.805 | 2.244
303.15 K, 101 kPa, x1 = 0.903 | 2.342
303.15 K, 101.3 kPa, x1 = 0.403 | 1.998
313.15 K, 101.3 kPa, x1 = 0.403 | 1.705
323.15 K, 100 kPa, x1 = 0.39 | 1.44
323.15 K, 101.3 kPa, x1 = 0.403 | 1.457

CC(CC(C)(C)C)CC(C)(C)CC(C)(C)C (stereo not given) + C1CC[C@H]2CCCC[C@H]2C1
viscosity [mPa·s], 100 kPa
Conditions | x2 = 0.125 | x2 = 0.25 | x2 = 0.375 | x2 = 0.5 | x2 = 0.625 | x2 = 0.75 | x2 = 0.875
293.15 K | 3.68 | 3.64 | 3.559 | 3.505 | 3.456 | 3.402 | 3.377
303.15 K | 2.919 | 2.871 | 2.83 | 2.797 | 2.765 | 2.736 | 2.713
313.15 K | 2.364 | 2.334 | 2.303 | 2.279 | 2.259 | 2.254 | 2.228
323.15 K | 1.961 | 1.934 | 1.911 | 1.897 | 1.884 | 1.876 | 1.87

CCCCNCCCC + C1COCCO1
Conditions | viscosity [mPa·s]
303.15 K, 101 kPa, x1 = 0.01068 | 1.065

CCCC(=O)O + C1COCO1
298.15 K, 101 kPa
Conditions | viscosity [mPa·s]
x2 = 0.2292 | 1.358
x2 = 0.3376 | 1.288
x2 = 0.5433 | 1.098
x2 = 0.6408 | 0.9928
x2 = 0.7351 | 0.8845
x2 = 0.8263 | 0.7758
x2 = 0.9146 | 0.6775
